# Data: patent US8003660B2, “Modulators of muscarinic receptors” (Vertex Pharmaceuticals Incorporated, priority 2006, dated 2011)
# pEC50: −log10 of the molar value.
# Tests used:
# Assay type in all cases: cell-based
# [1] = molecular target: T1, M3 muscarinic receptor (Homo sapiens, UniProt P20309); assay: Functional mobilization of intracellular calcium (FLIPR) in CHO cells expressing M3; settings: for pEC50: CHO cells expressing M3, FLIPR calcium; for Emax: CHO, 100% = maximum response obtained with the Carbachol control, read-out: M3 Efficacy
# T1 construct: expressed in transfected cells; host or cells: CHO (M3-CHO)
# Outline: (§1)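 Calcium flux is read on FLIPR over 60 sec at 488/540 nm in muscarinic-receptor CHO lines. Antagonist mode adds carbachol at EC80 after 15 min compound preincubation or with simultaneous co-application. Agonist mode adds compound alone. Cells carry Fluo-3 or Calcium 3 dye in probenecid-containing pH 7.4 buffer, 0.5% DMSO final.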
# [2] = molecular target: T2, M2 muscarinic receptor (Homo sapiens, UniProt P08172); assay: Functional mobilization of intracellular calcium (FLIPR) in CHO cells expressing M2; settings: for pEC50: CHO cells expressing M2, FLIPR calcium; for Emax: CHO, 100% = maximum response obtained with the Carbachol control, read-out: M2 Efficacy
# T2 construct: expressed in transfected cells; host or cells: CHO (M2-CHO)
# T2 sequence (P08172 1-466): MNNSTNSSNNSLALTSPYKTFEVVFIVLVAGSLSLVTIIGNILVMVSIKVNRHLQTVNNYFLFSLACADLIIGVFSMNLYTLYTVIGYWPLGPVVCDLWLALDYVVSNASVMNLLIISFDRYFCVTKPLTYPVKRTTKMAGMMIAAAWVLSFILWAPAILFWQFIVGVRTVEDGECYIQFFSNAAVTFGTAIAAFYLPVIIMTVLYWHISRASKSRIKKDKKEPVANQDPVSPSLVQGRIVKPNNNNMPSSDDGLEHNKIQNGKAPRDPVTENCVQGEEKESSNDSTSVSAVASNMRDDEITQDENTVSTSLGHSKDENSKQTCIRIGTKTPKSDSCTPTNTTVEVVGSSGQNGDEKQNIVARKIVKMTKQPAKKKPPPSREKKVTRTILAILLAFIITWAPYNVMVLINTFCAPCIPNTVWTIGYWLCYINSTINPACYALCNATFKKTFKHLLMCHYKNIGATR
# Outline: as §1
# [3] = molecular target: T3, M4 muscarinic receptor (Homo sapiens, UniProt P08173); assay: Functional mobilization of intracellular calcium (FLIPR) in CHO cells expressing M4; settings: for pEC50: CHO cells expressing M4, FLIPR calcium; for Emax: CHO, 100% = maximum response obtained with the Carbachol control, read-out: M4 Efficacy
# T3 construct: expressed in transfected cells; host or cells: CHO (M4-CHO)
# T3 sequence (P08173 1-479): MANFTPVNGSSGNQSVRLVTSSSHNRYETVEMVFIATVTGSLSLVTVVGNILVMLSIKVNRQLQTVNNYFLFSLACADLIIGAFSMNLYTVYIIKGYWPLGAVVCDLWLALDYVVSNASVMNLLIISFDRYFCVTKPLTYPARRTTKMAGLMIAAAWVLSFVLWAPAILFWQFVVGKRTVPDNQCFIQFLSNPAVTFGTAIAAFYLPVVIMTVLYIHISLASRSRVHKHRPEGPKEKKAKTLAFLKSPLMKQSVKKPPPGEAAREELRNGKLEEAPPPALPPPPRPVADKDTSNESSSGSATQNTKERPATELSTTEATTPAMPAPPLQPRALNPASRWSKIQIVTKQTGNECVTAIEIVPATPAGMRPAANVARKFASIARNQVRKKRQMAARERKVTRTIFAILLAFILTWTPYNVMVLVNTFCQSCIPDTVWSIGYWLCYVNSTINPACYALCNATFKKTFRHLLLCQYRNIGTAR
# Outline: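 Recombinant CHO cells loaded with Fluo-3 AM or Calcium 3 dye in pH 7.4 buffer containing 1 mM probenecid, with 0.5% final DMSO. For agonism, compound is added directly. For inhibition, it is preincubated 15 min, or co-applied, before carbachol at EC80. FLIPR fluorescence (ex 488, em 540 nm) is recorded for 60 s.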
# [4] = molecular target: T4, M1 muscarinic receptor (Homo sapiens, UniProt P11229); assay: Functional mobilization of intracellular calcium (FLIPR) in CHO cells expressing M1; settings: for pEC50: CHO cells expressing M1, FLIPR calcium; for Emax: CHO, 100% = maximum response obtained with the Carbachol control, read-out: M1 Efficacy
# T4 construct: expressed in transfected cells; host or cells: CHO (M1-CHO)
# T4 sequence (P11229 1-460): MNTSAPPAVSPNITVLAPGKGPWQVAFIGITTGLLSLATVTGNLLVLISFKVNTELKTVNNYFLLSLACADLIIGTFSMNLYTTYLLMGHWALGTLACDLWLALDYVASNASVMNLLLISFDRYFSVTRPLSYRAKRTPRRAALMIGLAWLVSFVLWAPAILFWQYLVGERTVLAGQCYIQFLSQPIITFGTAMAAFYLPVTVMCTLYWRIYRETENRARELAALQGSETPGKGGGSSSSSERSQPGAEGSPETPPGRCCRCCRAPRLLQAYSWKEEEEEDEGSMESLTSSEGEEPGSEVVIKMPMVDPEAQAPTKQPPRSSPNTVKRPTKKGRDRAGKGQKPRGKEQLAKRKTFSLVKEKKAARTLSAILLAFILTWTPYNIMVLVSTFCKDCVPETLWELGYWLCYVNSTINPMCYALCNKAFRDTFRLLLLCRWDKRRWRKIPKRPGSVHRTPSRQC
# Outline: as §1
# T1 sequence (P20309 whole entry): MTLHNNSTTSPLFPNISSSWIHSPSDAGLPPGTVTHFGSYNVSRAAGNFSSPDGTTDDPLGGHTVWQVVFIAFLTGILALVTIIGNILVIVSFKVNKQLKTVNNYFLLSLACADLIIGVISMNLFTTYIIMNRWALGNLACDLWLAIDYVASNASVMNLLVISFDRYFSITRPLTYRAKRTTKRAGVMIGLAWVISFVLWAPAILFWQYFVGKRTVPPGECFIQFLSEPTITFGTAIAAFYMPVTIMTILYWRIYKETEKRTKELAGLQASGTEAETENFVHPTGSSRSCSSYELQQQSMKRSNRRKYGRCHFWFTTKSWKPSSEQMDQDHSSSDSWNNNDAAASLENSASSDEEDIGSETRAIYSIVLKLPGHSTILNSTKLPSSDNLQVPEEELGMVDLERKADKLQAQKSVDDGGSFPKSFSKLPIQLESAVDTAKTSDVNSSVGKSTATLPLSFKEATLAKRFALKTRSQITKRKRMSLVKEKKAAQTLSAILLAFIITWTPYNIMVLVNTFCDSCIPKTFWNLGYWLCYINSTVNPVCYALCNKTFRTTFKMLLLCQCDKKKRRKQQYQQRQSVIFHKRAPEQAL
SMILES,pEC50 [1],Emax [1],pEC50 [2],Emax [2],pEC50 [3],Emax [3],pEC50 [4],Emax [4]
CC(=O)N1CCCC[C@H]1C(=O)N[C@H]1CCC2(CCN(CCC(C)(C)C)CC2)c2cc(F)ccc21 [compound 83],< 5.30,< 25%,< 5.30,< 25%,> 5.70,25 to 100%,> 5.70,25 to 100%
CC(=O)N1CCC[C@H]1C(=O)N[C@@H]1CCC2(CCN(CCC(C)(C)C)CC2)c2ccccc21 [compound 84],< 5.30,< 25%,> 5.70,25 to 100%,> 5.70,25 to 100%,5.30 to 5.70,25 to 100%
C[C@@H](O)CC(=O)N[C@H]1CCC2(CCN(CCC(C)(C)C)CC2)c2ccccc21 [compound 85],< 5.30,< 25%,> 5.70,25 to 100%,> 5.70,25 to 100%,> 5.70,25 to 100%
CC(=O)N(C(C)C)[C@H]1CCC2(CCN(CCC(C)(C)C)CC2)c2cc(F)ccc21 [compound 86],< 5.30,< 25%,< 5.30,< 25%,> 5.70,25 to 100%,> 5.70,25 to 100%
CC(=O)NC(C(=O)N[C@@H]1CCC2(CCN(CCC(C)(C)C)CC2)c2ccccc21)C(C)C (stereo partly shown) [compound 87],< 5.30,< 25%,< 5.30,< 25%,> 5.70,25 to 100%,< 5.30,< 25%
CC(C)(C)CCN1CCC2(CC[C@H](NC(=O)CCOC(C)(C)C)c3ccccc32)CC1 [compound 88],< 5.30,< 25%,> 5.70,25 to 100%,> 5.70,25 to 100%,> 5.70,25 to 100%
CC(C)CCN1CCC2(CCCc3ccccc32)CC1 [compound 89],< 5.30,< 25%,< 5.30,< 25%,> 5.70,25 to 100%,< 5.30,25 to 100%
CC(C)CCN1CCC2(CC[C@H](N3CCCC3=O)c3ccccc32)CC1 [compound 90],< 5.30,< 25%,< 5.30,< 25%,5.30 to 5.70,25 to 100%,5.30 to 5.70,25 to 100%
CC(C)(C)CCN1CCC2(CC[C@H](N3CCCC3=O)c3ccc(F)cc32)CC1 [compound 91],< 5.30,< 25%,> 5.70,< 25%,> 5.70,25 to 100%,> 5.70,25 to 100%
CC(=O)CCC(=O)N[C@H]1CCC2(CCN(CCC(C)(C)C)CC2)c2cc(F)ccc21 [compound 92],< 5.30,< 25%,> 5.70,25 to 100%,> 5.70,25 to 100%,> 5.70,25 to 100%
CC(C)(C)CCN1CCC2(CC[C@@H](NC(=O)CC3CCOCC3)c3ccc(F)cc32)CC1 [compound 93],< 5.30,< 25%,< 5.30,< 25%,> 5.70,25 to 100%,5.30 to 5.70,25 to 100%
CCCN1CCC2(CC[C@H](NC(C)=O)c3ccccc32)CC1 [compound 95],< 5.30,< 25%,< 5.30,< 25%,< 5.30,25 to 100%,< 5.30,25 to 100%
CC(=O)NCCC(=O)N[C@H]1CCC2(CCN(CCC(C)(C)C)CC2)c2cc(F)ccc21 [compound 96],< 5.30,< 25%,> 5.70,25 to 100%,> 5.70,25 to 100%,> 5.70,25 to 100%
CC(C)(C)CCN1CCC2(CCC(C#N)c3ccccc32)CC1 (stereo not shown) [compound 97],< 5.30,< 25%,> 5.70,25 to 100%,> 5.70,25 to 100%,> 5.70,25 to 100%
Cn1cnc(C(=O)N[C@H]2CCC3(CCN(CCC(C)(C)C)CC3)c3ccccc32)c1 [compound 98],< 5.30,< 25%,< 5.30,< 25%,> 5.70,25 to 100%,> 5.70,25 to 100%
CCOCC(=O)N[C@@H]1CCC2(CCN(CCC(C)(C)C)CC2)c2ccccc21 [compound 99],< 5.30,< 25%,< 5.30,< 25%,> 5.70,25 to 100%,< 5.30,< 25%
CCN(C(=O)CCNC(C)=O)[C@@H]1CCC2(CCN(CCC(C)(C)C)CC2)c2ccccc21 [compound 100],< 5.30,< 25%,< 5.30,< 25%,> 5.70,25 to 100%,< 5.30,< 25%
CCN(C(=O)c1cncn1C)[C@@H]1CCC2(CCN(CCC(C)(C)C)CC2)c2ccccc21 [compound 101],< 5.30,< 25%,< 5.30,< 25%,5.30 to 5.70,25 to 100%,> 5.70,25 to 100%
CC(C)(C)CCN1CCC2(CC[C@H](N3C(=O)CCC3=O)c3ccccc32)CC1 [compound 102],< 5.30,< 25%,< 5.30,< 25%,> 5.70,25 to 100%,5.30 to 5.70,25 to 100%
CC(C)(C)CCN1CCC2(CC[C@H](NC(=O)C3CCC(=O)N3)c3ccc(F)cc32)CC1 (stereo partly shown) [compound 103],< 5.30,< 25%,> 5.70,< 25%,> 5.70,25 to 100%,> 5.70,25 to 100%
CC(=O)N[C@H]1CCC2(CCN(CC(C)C)CC2)c2ccccc21 [compound 104],< 5.30,< 25%,< 5.30,25 to 100%,5.30 to 5.70,25 to 100%,5.30 to 5.70,25 to 100%
COCCC(=O)N[C@@H]1CCC2(CCN(CCC(C)(C)C)CC2)c2ccccc21 [compound 105],< 5.30,< 25%,< 5.30,< 25%,> 5.70,25 to 100%,5.30 to 5.70,< 25%
C[C@@H](C(=O)N[C@H]1CCC2(CCN(CCC(C)(C)C)CC2)c2cc(F)ccc21)N1CCCC1=O [compound 106],< 5.30,< 25%,> 5.70,25 to 100%,> 5.70,25 to 100%,> 5.70,25 to 100%
